Data set [1] can be described thus: De-gelling temperature of aqueous surfactant blends by low shear rheology (Bohlin Gemini rheometer, storage modulus vs temperature). In kind it is physicochemical. On the procedure:
The temperatures at which blends of capped and uncapped surfactants de-gel were determined by standard low shear rheology with a Bohlin™ Gemini rheometer. The storage modulus (G′) at 1 Hz was determined at a strain of 0.001-0.002 in a standard C14 cup and bob geometry over a temperature range of 5-70° C., the exact range depending on the de-gelling point of the sample. Plots of storage modulus versus temperature were constructed and the de-gelling temperature was taken to be the point at which the modulus begins to fall rapidly from its high value in the gelled state (typically ca. 10^5 Pa) down to the final value in the de-gelled state (less than 10 Pa). Blends of surfactants were prepared at from 25 to 40% w/w total surfactant concentration in water. Samples were left in an oven at 55° C. for several days to ensure that the mixtures were homogeneous. Samples were placed in the C14 cup and the samples were de-gelled by raising the temperature in the rheometer, the bob was then inserted and the sample was then cooled at 1° C./min, whilst the storage modulus was regularly recorded during the cooling. Once the final temperature had been reached (i.e. when the sample had gelled), the temperature was then increased again and the modulus again recorded. The de-gelling temperature was determined from the increasing temperature cycle.
Degelling temperatures—the measurements relied on the same method as for ‘Example 1’ but just at 30% w/w total surfactant concentration.
De-gelling temperatures were measured using the same method as in Example 1.
(§1) This example provides de-gelling, cloud point and adjuvancy data for dodecyl 23 ethoxylate with n-hexyl cap and hexadecyl 20 ethoxylate with n-hexyl cap Cloud points were measured as described in example 1 for 1% aqueous solutions of the capped and uncapped surfactants both individually and as blends (see Table 30). Degelling temperatures were also measured as outlined in example 1 for 25, 30, 35 and 40% aqueous solutions of the capped and uncapped surfactants both individually and as blends (see Table 31).
(§2) This example provides de-gelling, cloud point and adjuvancy data for oleyl 20 ethoxylate with n-butyl, n-pentyl or benzyl ether caps end capped oleyl 20 ethoxylate. Cloud points were measured as described in example 1 for 1% aqueous solutions of the capped and uncapped surfactants both individually and as blends. Degelling temperatures were also measured as outlined in example 1 for 25, 30, 35 and 40% aqueous solutions o of the capped and uncapped surfactants both individually and as blends.

Data set [2] in a line: Cloud point measurement (absorbance at 500 nm as a function of temperature). The conditions noted are these: 1% aqueous solutions. In kind it is physicochemical. Here is the method: Consistent with the standard method for measuring the cloud point of surfactants, the cloud point of each of the above blends was measured at a total concentration of 1% w/w in water using a Perkin Elmer spectrophotometer fitted with a PTP6 temperature controller. The absorbance of the solution at 500 nm wavelength was determined as a function of temperature. The cloud point was recorded as the onset of a rapid increase in absorbance as the solution began to cloud.
Cloud point—the measurements relied on the same method as for ‘Example 1’
Cloud points—were measured using the same method as in Example 1.
as §1, §2

The next data set deals with Avena fatua (AVEFA). The data set can be described thus: Glasshouse adjuvancy test for pinoxaden on AVEFA. In kind it is in vivo. The conditions noted are these: pinoxaden 15 g ai/ha, total surfactant 0.2% w/v, 21 days. On the procedure:
The efficacy of 1:1 blends of oleyl 20EO with oleyl 20EO with either n-hexanoyl, n-octanoyl or 2-ethyl hexanoyl ester caps as adjuvants for the herbicide pinoxaden was tested in a glasshouse against two weed species, sown into standard soil in pots and cultivated under controlled conditions in a glasshouse (20/16° C. day/night; 16 hours light; 65% humidity). Pinoxaden was added to the spray tank as a standard EC (emulsifiable concentrate) formulation. The plants were sprayed with pinoxaden at rates of 7.5 or 15 grams of pesticide per hectare using a laboratory track sprayer which delivered the aqueous spray composition at a rate of 200 litres per hectare, using a flat fan nozzle (Teejet 11002VS) at 2 bar. The spray solutions also contained the oleyl 20EO alone or in the 1:1 blends with the capped surfactants. The adjuvants were added to the spray solution at a total surfactant rate of 0.2% w/v. All spray solutions also contained 10% w/w of iso-propanol. The weed species and their BBCH growth stage at spraying were Avena fatua (AVEFA; growth stage 13) and Setaria viridis (SETVI; growth stage 13). Each spray test was replicated three times. The test plants were then grown in a glasshouse under controlled conditions (20/16° C. day/night; 16 hours light; 65% humidity) and watered twice a day. The efficacy of the herbicide was assessed visually and expressed as a percentage of the leaf area killed. Samples were assessed at a time period of 21 days following application.
Dodecyl 23EO and hexadecyl 20EO were capped with an n-hexyl ether cap. The efficacy of 1:1 blends of these with their uncapped counterparts were tested as adjuvants for the herbicide pinoxaden was tested in a glasshouse against two weed species, sown into standard soil in pots and cultivated under controlled conditions in a glasshouse (20/16° C. day/night; 16 hours light; 65% humidity). Pinoxaden was added to the spray tank as a standard EC (emulsifiable concentrate) formulation. The plants were sprayed with pinoxaden at a.i. rates of 7.5 or 15 grams per hectare using a laboratory track sprayer which delivered the aqueous spray composition at a rate of 200 litres per hectare, using a flat fan nozzle (Teejet 11002VS) at 2 bar. The spray solutions tested included the capped and uncapped alone or in the 1:1 blends with the capped surfactants. The adjuvants were added to the spray solution at a total surfactant rate of 0.2% w/v. All spray solutions also contained 10% w/w of iso-propanol. The weed species and their BBCH growth stage at spraying was Avena fatua (AVEFA; growth stage 12). Each spray test was replicated three times. The test plants were then grown in a glasshouse under controlled conditions (20/16° C. day/night; 16 hours light; 65% humidity) and watered twice a day. The efficacy of the herbicide was assessed visually and expressed as a percentage of the leaf area killed. Samples were assessed at a time period of 21 days following application.
Oleyl 20EO was capped with -butyl, n-pentyl and n-benzyl caps. The efficacy of 1:1 blends of these with their uncapped counterparts were tested as adjuvants for the herbicide pinoxaden was tested in a glasshouse against two weed species, sown into standard soil in pots and cultivated under controlled conditions in a glasshouse (20/16° C. day/night; 16 hours light; 65% humidity). Pinoxaden was added to the spray tank as a standard EC (emulsifiable concentrate) formulation. The plants were sprayed with pinoxaden at a.i. rates of 7.5 or 15 grams per hectare using a laboratory track sprayer which delivered the aqueous spray composition at a rate of 200 litres per hectare, using a flat fan nozzle (Teejet 11002VS) at 2 bar. The spray solutions tested included the capped and uncapped alone or in the 1:1 blends with the capped surfactants. The adjuvants were added to the spray solution at a total surfactant rate of 0.2% w/v. All spray solutions also contained 10% w/w of iso-propanol.

[3] abbreviates: total surfactant concentration 25% w/w, Table 31.
Setting [4] is: total surfactant concentration 30% w/w, Table 31.
Where [5] appears, read: total surfactant concentration 35% w/w, Table 31.
Where [6] appears, read: total surfactant concentration 40% w/w, Table 31.
The mark [7] stands for this setting: total surfactant concentration 25% w/w, Table 35.
[8] abbreviates: total surfactant concentration 30% w/w, Table 35.
The mark [9] stands for this setting: total surfactant concentration 35% w/w, Table 35.
Setting [10] is: total surfactant concentration 40% w/w, Table 35.

On to `CCCCCCCCCCCCCCCCOCCOCCOCCOCCOCCOCCOCCOCCOCCOCCOCCOCCOCCOCCOCCOCCOCCOCCOCCOCCO` [Hexadecyl 20EO, hexadecyl 20 ethoxylate], for which the De-gelling temperature is 23.2 °C in data set [1] (setting [3]), 48.7 °C in data set [1] (setting [4]), 66.1 °C in data set [1] (setting [5]) and 74.1 °C in data set [1] (setting [6]). Further, the Cloud point in data set [2] (Table 30) is >90.0 °C. For the same compound, the Mean control with Avena fatua (AVEFA) (Example 7, growth stage 12) was found to be 90.3%.
As for Hexadecyl 20EO n-hexyl ether, the De-gelling temperature is <5 °C in data set [1] (setting [3]), <5 °C in data set [1] (setting [4]), 5.7 °C in data set [1] (setting [5]) and 19.6 °C in data set [1] (setting [6]). The Cloud point in data set [2] (Table 30) worked out at 55.9 °C. The compound also displayed a Mean control in the data set on Avena fatua (AVEFA) (Example 7, growth stage 12) of 93.3%.
For Oleyl 20EO n-pentyl ether, the De-gelling temperature is <5 °C in data set [1] (setting [7]), 27.3 °C in data set [1] (setting [8]), 34.0 °C in data set [1] (setting [9]) and 36.1 °C in data set [1] (setting [10]). Besides, in data set [2] (Table 34), the Cloud point came out at 55.9 °C. The compound further displayed a Mean control with Avena fatua (AVEFA) (Example 9, growth stage 12) of 87.7%.
Take `CCCCCCCC/C=C\CCCCCCCCOCCOCCOCCOCCOCCOCCOCCOCCOCCOCCOCCOCCOCCOCCOCCOCCOCCOCCOCCOCCOCc1ccccc1` [Oleyl 20EO n-benzyl ether]: the De-gelling temperature in data set [1] (setting [7]) is <5 °C; in data set [1] (setting [8]), <5 °C; in data set [1] (setting [9]), 5 °C; in data set [1] (setting [10]), 15.1 °C. The compound also returned a Cloud point in data set [2] (Table 34) of 38.7 °C. The compound also registered a Mean control in the data set with Avena fatua (AVEFA) (Example 9, growth stage 12) of 89.3%.
Take dodecyl 23 ethoxylate [Dodecyl 23EO]: the De-gelling temperature in data set [1] (setting [3]) is 21.1 °C; in data set [1] (setting [4]), 38.6 °C; in data set [1] (setting [5]) it was 55.0 °C; in data set [1] (setting [6]), 64.3 °C. Further, the Cloud point in data set [2] (Table 30) is >90.0 °C. In the data set on Avena fatua (AVEFA) (Example 7, growth stage 12), this compound registered a Mean control of 83.3%.

The record behind these values is US11779014B2, “Adjuvants” (SYNGENTA PARTICIPATIONS AG, priority 2017, dated 2023).
